Source: US5464826A, “Method of treating tumors in mammals with 2',2'-difluoronucleosides” (Eli Lilly and Company, priority 1994, dated 1995)
Converted amounts (≈) assume the structure as drawn. Like-named read-outs stand apart in the source and are kept apart here.

Columns and labels:
[1] = test system: human leukemic cells (CCRF-CEM cell line); experiment: Cytotoxicity Screen (growth inhibition); format: cell-based; conditions: for IC50: Homo sapiens, read-out: IC50 (concentration giving 50% growth inhibition)
Text: The compounds represented by formula I employed in the present invention are cytostatic in that they inhibit the growth of human leukemic cells (CCRF-CEM cell line). […] T1 TABLE 1-Cytotoxicity Screen? -Compound Name?

[2] = test system: L1210V lymphocytic leukemia; experiment: L1210V Lymphocytic Leukemia Tumor System; format: in vivo, mice; conditions: Experiment 1, IP; for Indefinite Survivors: 45 day survivors; for Toxic Deaths: deaths/mice in group
Protocol: The study testing the efficacy of these compounds against L1210V leukemia was initiated by an IP inoculation of 1×10^6 cells. Treatment was begun 24 hours after inoculation. The response to therapy was determined by comparing the mean life span of the ten treated animals to that of the ten control animals; prolongation of life in the treated animals beyond that of controls is expressed as a percentage. In the Table, column 1 gives the example number of the compound tested; column 2, the experiment number; column 3, the dose level of the compound in mg/kg; column 4, the route of administration; column 5, the dosage schedule, that is, the days on which the compound was administered to the mice; column 6, the average increase in life span of the treated mice as compared to the control mice; column 7, the toxic deaths over the number of mice in each group; and column 8, the indefinite survivors, that is, the number of 45 day survivors in each group.

[3] = test system: X5563 plasma cell myeloma; experiment: X5563 plasma cell myeloma tumor model; format: in vivo, mice (C3H); conditions: 30.0 mg/kg; IP; Daily for 9 days
Text: X5563 Myeloma--the tumor is maintained in C3H mice.
(§1) The tumor was removed from passage animals and minced into 1 to 3 mm square fragments using sterile techniques. Tumor pieces were checked for sterility using both Antibiotic Medium 1 and Brain Heart Infusion (Difco; Detroit, Mich.). Recipient mice were shaved and tumor pieces were implanted subcutaneously in the axillary region by trocar. Drug therapy on the appropriate schedule was initiated on the day after tumor implant. The compound was dissolved in saline for all experiments. All animals were weighed at the beginning and end of drug treatment. Food and water were provided ad libitum. On days 10 to 12, two dimensional measurements (width and length) of all tumors were taken using vernier calipers. Tumor weights were calculated from these measurements using the following formula:
Tumor Weight (mg)=Tumor Length (mm)×Tumor Width (mm)^2 /2
For all data, the tumor weight was rounded to the nearest tenth of a gram for analysis. No group is included in the analysis for therapeutic activity in which deaths attributable to drug toxicity exceeded 30 percent of the treated group.
In Table 3 which follows, column 1 gives the example number of the compound tested; column 2 provides the tumor system; column 3, the dose level; column 4, the route administered; column 5, the dosage schedule; column 6, the percent inhibition of the tumor; and column 7, the toxic deaths observed prior to completion of the study.

[4] = test system: 6C3HED, CA755, P1534J, X5563; experiment: additional tumor test systems (summary statement); format: in vivo, mice; conditions: systems include 6C3HED
Text: These systems include the 6C3HED lymphosarcoma, also known as the Gardner lymphosarcoma (6C3HED); the CA-755 adenocarcinoma (CA755); the P1534J lymphatic leukemia (P1534J); and the X5563 plasma cell myeloma (X5563). Each of these systems is described in detail below.
as §1, with “formula: […]” for “formula:”

1-(2,6-diamino-9H-purin-9-yl)-2-desoxy-2,2-difluororibose
IC50 (concentration giving 50% growth inhibition) [1]: 0.075 µg/mL

1-(6-Amino-9H-purin-9-yl)-2-desoxy-2,2-difluororibose [Example 6]
Percent Increase Life Span ([2]; 100.0 mg/kg, Daily for 9 days): 16%
Indefinite Survivors ([2]; 100.0 mg/kg, Daily for 9 days): 0
Toxic Deaths ([2]; 100.0 mg/kg, Daily for 9 days): 0/7
Percent Increase Life Span ([2]; 200.0 mg/kg, Daily for 9 days): 18%
Indefinite Survivors ([2]; 200.0 mg/kg, Daily for 9 days): 0
Toxic Deaths ([2]; 200.0 mg/kg, Daily for 9 days): 0/7

O=c1[nH]c(=O)c2ncn(C3O[C@H](CO)[C@@H](O)C3(F)F)c2[nH]1 (stereo partly shown) [1-(2,6-dioxo-1H,3H,9H-purin-9-yl)-2-desoxy-2,2-difluororibose]
IC50 [1]: 0.3 µg/mL (≈ 0.986 µM)

Nc1nc2c(ncn2C2O[C@H](CO)[C@@H](O)C2(F)F)c(=O)[nH]1 (stereo partly shown) [1-(2-amino-6-oxo-1H,9H-purin-9-yl)-2-desoxy-2,2-difluororibose]
IC50 [1]: 0.1 µg/mL (≈ 0.33 µM)

O=c1ccn(C2O[C@H](CO)[C@@H](O)C2(F)F)c(=O)[nH]1 (stereo partly shown) [Example 3, 1-(2,4-Dioxo-1H, 3H-pyrimidin-1-yl)-2-desoxy-2,2-difluororibose]
IC50 [1]: 5.4 µg/mL (≈ 20.4 µM)

Cc1cn(C2O[C@H](CO)[C@@H](O)C2(F)F)c(=O)nc1N (stereo partly shown) [Example 4, 1-(4-Amino-5-methyl-2-oxo-1H-pyrimidin-1-yl)-2-desoxy-2,2-difluororibose]
IC50 [1]: 0.3 µg/mL (≈ 1.08 µM)

Nc1ccn(C2O[C@H](CO)[C@H](O)C2(F)F)c(=O)n1 (stereo partly shown) [Example 5, 1-(4-Amino-2-oxo-1H-pyrimidin-1-yl)-2-desoxy-2,2-difluoroxylose]
IC50 ([1]; CCRF-CEM): 0.3 µg/mL (≈ 1.14 µM)
Percent Increase Life Span ([2]; 30.0 mg/kg, Daily for 10 days): 57%
Indefinite Survivors ([2]; 30.0 mg/kg, Daily for 10 days): 0
Toxic Deaths ([2]; 30.0 mg/kg, Daily for 10 days): 0/10
Percent Inhibition of Tumor [3]: 28%
Toxic Deaths [3]: 0/10
activity in additional tumor test systems (in words) [4]: demonstrated activity in additional tumor test systems

Nc1nc(Cl)nc2c1ncn2[C@H]1O[C@H](CO)[C@@H](O)C1(F)F [α-1-(2-chloro-6-amino-9H-purin-9-yl)-2-desoxy-2,2-difluororibose]
IC50 [1]: > 20 µg/mL

Nc1ncnc2c1ncn2[C@H]1O[C@H](CO)[C@@H](O)C1(F)F [α-1-(6-amino-9H-purin-9-yl)-2-desoxy-2,2-difluororibose]
IC50 [1]: 6.9 µg/mL (≈ 24 µM)

Nc1nc(Cl)nc2c1ncn2[C@@H]1O[C@H](CO)[C@@H](O)C1(F)F [β-1-(2-chloro-6-amino-9H-purin-9-yl)-2-desoxy-2,2-difluororibose]
IC50 [1]: 0.4 µg/mL (≈ 1.24 µM)

Nc1ncnc2c1ncn2[C@@H]1O[C@H](CO)[C@@H](O)C1(F)F [β-1-(6-amino-9H-purin-9-yl)-2-desoxy-2,2-difluororibose]
IC50 [1]: 0.5 µg/mL (≈ 1.74 µM)
